Source: patent US7648993B2, “Methods of treating disorders with Group I mGluR antagonists” (Brown University, priority 2001, dated 2010)
“Also recorded” adds a separate entry of the source.

Key:
[1] = system: cultured hippocampal neurons; test: Acid strip immunocytochemistry for internalized GluR1 (AMPARs); format: cell-based, rat; settings: for effect on DHPG/mGluR-stimulated internalization of GluR1 (in words): APV 50 μM, cycloheximide 60 μM applied 15 min before DHPG; for effect on basal levels of internalized puncta (in words): without DHPG
[2] = system: hippocampal area CA1 slices; test: Field potential (FP) recordings in area CA1 of rat hippocampal slices (DHPG-LTD); format: cell-based, Long Evans rats
Description: All animals were used in accordance with procedures approved by the Brown University Institutional Animal Care and Use Committee. Hippocampal slices were prepared from postnatal day 21-30 (P21-30) Long Evans rats (Charles River, Cambridge, Mass.) and mGluR5 knockout mice (Lu et al. 1997) as described previously (Huber et al. 2000). For most experiments, CA3 was removed immediately after sectioning. Slices recovered for 1-2 h at room temperature (rats) or at 30° C. (mice) in artificial cerebrospinal fluid (ACSF) containing (in mM) 124 NaCl, 5 KCl, 1.25 NaH2PO4, 26 NaHCO3, 1 MgCl2, 2 CaCl2, and 10 dextrose, saturated with 95% O2-5% CO2. For recording, slices were placed in a submersion recording chamber and perfused with 30° C. ACSF at a rate of 2 ml/min.
Synaptically evoked field potentials (FPs) were recorded from area CA1 as described previously. Sharp microelectrode and whole cell voltage-clamp recordings were made using Axoclamp 2B and Axopatch 1D amplifiers (Axon Instruments), respectively. Sharp electrodes (80-120 M Ω) were filled with 3 M K-acetate and 10 mM KCl; patch pipettes (3-7 M Ω) were filled with (in mM) 134 K-gluconate, 6 KCl, 4 NaCl, 10 HEPES, 0.2 EGTA, 4 MgATP, 0.3 TrisGTP, and 14 phosphocreatine. The pH of the internal solution was adjusted to 7.25 with KOH, and the osmolarity was adjusted to 300 mOsm with H2O or sucrose. Only experiments in which there was less than a 15% change in series resistance were included in the analysis. Waveforms were filtered at 2 kHz and acquired and digitized at 10 kHz on a PC using Experimenter's Workbench (DataWave Systems, Boulder, Colo.).
Baseline responses were collected every 10-30 s using a stimulation intensity (10-30 μA; 0.2 ms) yielding 50-60% of the maximal response. Experiments in which there was a>5% drift in the response magnitude during the 20-min baseline period before DHPG or LFS were excluded from further analysis. All experiments with mGluR5 KO mice used wildtype littermates as controls and were performed blind to the genotype, later determined by Therion (Troy, N.Y.). LFS consisted of 900 pulses at 1 Hz. PP-LFS consisted of 900 pairs of stimuli (50-ms interstimulus interval) delivered at 1 Hz. In saturation experiments, stimulus duration was increased from 0.2 to 0.4 ms during PP-LFS.
The group data were analyzed as follows: 1) the initial slopes of the FPs and excitatory postsynaptic potentials (EPSPs), or the amplitude of the excitatory postsynaptic currents (EPSCs), for each experiment were expressed as percentages of the preconditioning or DHPG baseline average, 2) the time scale in each experiment was converted to time from the onset of conditioning or DHPG, and 3) the time-matched, normalized data were averaged across experiments and expressed in the text and figures as the means ±SE. Significant differences between groups were determined using an independent t-test or ANOVA performed on a 5-min average taken 1 h after LFS or DHPG application.
R,S-DHPG and D-2-amino-5-phosphonopentanoic acid (D-AP5) was purchased from Tocris (St. Louis, Mo.); all other chemicals were from Sigma Chemical (St Louis, Mo.). DHPG was prepared as a 100 times stock in H2O, aliquoted and stored at −20° C. Fresh stocks were made once a week. A 10 times stock of AP5 was prepared in ACSF and stored at 4° C. These stocks were diluted in ACSF to achieve their final concentrations. Picrotoxin was dissolved directly into ACSF immediately before use.

[3] = system: cultured hippocampal neurons; test: Immunocytochemical localization of surface synaptic receptors (GluR2, GluR1, NR1, GABAAβ1); format: cell-based, rat; settings: for GluR1-positive synapses: cycloheximide 60 μM applied 15 min before DHPG where named
From the text: We next determined if the DHPG-induced increase in internalized AMPARs is accompanied by a net decrease in surface-expressed receptor clusters at synapses. At various intervals after DHPG washout, cells were fixed and surface GluR2 or GluR1 was labeled with N-terminal antibodies without permeabilization. The cultures were then permeabilized, and synapses were labeled using an antibody against the presynaptic marker synapsin I or synaptophysin coupled to the appropriate secondary antibody. Under control conditions, most synapses were immunoreactive for AMPAR clusters (GluR2, 80.6±9.0%; n=10 cells, 200 synapses, FIGS. 5A-D; GluR1, 72.5±4.7%; n=15 cells, 225 synapses; FIGS. 5E and F).
Following experimental treatment, low-density cultures were fixed in 4% paraformaldehyde with 4% sucrose for 5 min. Cultures were rinsed in PBS and then blocked in PBS with 20% fetal bovine serum for 1 h. Cultures were stained with N-terminal receptor antibodies overnight at 4° C. (GluR2, 1:100, Chemicon, Ternecula, California; GluR1, 1:100, gift of R. Huganir; NR1, 1:500, Chemicon MAB363; GABAAβ1, 1:100 Santa Cruz Biologicals, Santa Cruz, Calif.). Cultures were then rinsed in blocking buffer containing 0.1% Triton-X for 20 min and exposed to antibodies directed against presynaptic proteins (synapsin 1, 1:1000, Chemicon; synaptophysin, 1:100, Boehringer Manheim, Irvine, Calif.) for 1 h at room temperature. Cultures were then rinsed and exposed to the appropriate fluorescent secondary antibodies (Jackson Immunoresearch, West Grove, Pa.).
Microscopy was performed with a Nikon E800 microscope using a 60×1.4 NA objective (Melville, N.Y.). Fluorescence images were collected with a Sensys cooled CCD camera and analyzed using IP-Labs software. Additional images were collected with a Olympus Flowview confocal microscope with a 60×1.2 NA objective. All analyses were performed blind to the stimulation history of the culture. Microscopic fields had 1-3 neurons displaying smooth soma and generally healthy morphology with multiple distinct processes. Immunofluorescence was analyzed along the proximal 50 μm of 3 or more dendrites per neuron. Immunoreactive puncta were defined as discrete points along the dendrite with fluorescence intensity twice the background staining of the neuron. Five cells were analyzed per culture and 3-6 cultures were analyzed per condition. Separate controls were performed with each experiment and a Student's t-test was used to determine statistical significance. Data are expressed as puncta per 10 μm of dendrite unless stated otherwise.

[4] = system: high-density cultured hippocampal neurons; test: Biotinylation and quantitative western blot of surface expressed receptors; format: cell-based, rat; settings: DHPG 50 μM, 5 min; 60 minutes later; cycloheximide 60 μM with DHPG where named
Description: To confirm the effect of mGluR activation on surface AMPARs using an alternative approach, we treated high-density cultures with DHPG (50 μM, 5 min) or control medium and surface receptors were labeled with biotin 60 minutes later. Biotinylated receptors were precipitated and the ratio of surface to total GluR1 was determined by quantitative western blotting. This biochemical analysis confirmed that surface AMPARs are reduced by DHPG treatment to only 56.8±4.0% of the value in control cultures (n=4 in each treatment group; p<0.01; FIG. 6).
Biotinylation experiments were performed as previously described^35. Briefly, 2-week-old high-density cultured hippocampal neurons were treated with either control medium or 50 μM DHPG for 5 min, and incubated for 1 h at 37° C. to allow endocytosis to occur. The sister cultures were placed on ice to stop endocytosis and washed two times with ice-cold artificial cerebrospinal fluid (ACSF) containing 124 mM NaCl, 5 mM KCl, 1.25 mM NaH2PO4, 26 mM NaHCO3, 0.8 mM MgCl2, 1.8 mM CaCl2, 10 mM dextrose, and saturated with 95% O2, 5% CO2. Cultures were then incubated with ACSF containing 1 mg/ml Sulfo-NHS-LC-Biotin (Pierce Chemical Company, Rockford, Ill.) for 30 min on ice. Cultures were rinsed in TBS to quench the biotin reaction. […] Quantitative western blots were performed on both total and biotinylated (surface) proteins using anti-GluR1 C-terminal (1:1000, Upstate Biotechnology, Lake Placid, N.Y.) and anti-NR1 N-terminal antibodies (1:1000, Chemicon). […] Digital images, produced by densitometric scans of autoradiographs on a ScanJet IIcx (Hewlett Packard, Palo Alto, Calif.) with DeskScan II software (Hewlett Packard), were quantified using NIH Image 1.60 software. The surface/total ratio was calculated for each culture, and treatment groups were compared using a paired t-test. […] For display purposes, the data are expressed as the ratio of DHPG to control values.

In the case of N[C@](CC1c2ccccc2Oc2ccccc21)(C(=O)O)[C@@H]1C[C@H]1C(=O)O [LY344545], the “internalized GluR1 puncta, LY344545 experiment” value ([1]; DHPG 50 μM, 5 min, LY344545 100 μM) is reported as 0.32±0.08 puncta per 10 μm of dendrite and the “effect on DHPG/mGluR-stimulated internalization of GluR1 (in words)” value ([1]; LY344545 100 μM) is reported as “completely blocked”.
With N[C@@H](Cn1oc(=O)[nH]c1=O)C(=O)O [quisqualic acid] the “LTD of FP, % of baseline” value ([2]; quisqualic acid 5 μM, 5 min) was 81±2% and the “LTD induced with quisqualic acid in the presence of AP5” value ([2]; quisqualic acid 5 μM, with AP5) was 79±2%.
In the case of N[C@H](CCCP(=O)(O)O)C(=O)O [AP5, D-2-amino-5-phosphonopentanoic acid], the “effect on the magnitude of DHPG-LTD (in words)” value ([2]; AP5 50 μM) is reported as “no effect”, the “magnitude of DHPG-LTD in the presence of AP5” value ([2]; AP5 50 μM preincubation, DHPG 50 μM, 5 min) is reported as 83±3% and the “effect on DHPG/mGluR-stimulated internalization of GluR1 (in words)” value ([1]; LY344545 100 μM) is reported as “no effect”.
For C[C@@H]1C[C@@H]([C@H](O)CC2CC(=O)NC(=O)C2)C(=O)[C@@H](C)C1 [cycloheximide], the “effect on DHPG/mGluR-stimulated internalization of GluR1 (in words)” value ([1]; LY344545 100 μM) was “significantly inhibited; also recorded: decreases”, the “internalized GluR1 puncta, cycloheximide experiment” value ([1]; measured at 60 minutes, chx 60 μM applied 15 min before DHPG) was 0.76±0.09 puncta per 10 μm of dendrite and the “effect on basal levels of internalized puncta (in words)” value [1] was “Neither cycloheximide nor anisomycin had any significant effect”. For the same compound, the GluR1-positive synapses ([3]; 15 min after DHPG) was 37.8±3.8%, the GluR1-positive synapses ([3]; 60 min after DHPG) was 55.7±5.1% and the NR1-positive synapses ([3]; 60 minutes after DHPG treatment, with cycloheximide where named) was 42+5%. For the same compound, the “surface NR1 (surface/total), % of the value in control cultures” value [4] was 79.1±14.5%.
For COc1ccc(C[C@H]2NC[C@H](O)[C@H]2OC(C)=O)cc1 [anisomycin], the “effect on DHPG/mGluR-stimulated internalization of GluR1 (in words)” value ([1]; LY344545 100 μM) was “blocked” and the “effect on basal levels of internalized puncta (in words)” value [1] was “Neither cycloheximide nor anisomycin had any significant effect”.
